Assays:
Assay type in all cases: cell-based
[1] = tested on: YAP/TAZ-TEAD transcription; assay: Reporter gene assay for measuring the inhibition of YAP/TAZ-TEAD transcription (TEAD-responsive element luciferase reporter in Hek293T cells); conditions: Homo sapiens, HEK-293T; Hek293T cells transfected with TEAD-responsive luciferase reporter, 24 hours incubation
Method: Hek293T cells are cultured in DMEM supplemented with 10% fetal bovine serum, Sodium pyruvate, Sodium bicarbonate, L-glutamine. The cells are harvested and transiently transfected with TEAD-responsive element luciferase reporter. Transfected cells are plated in 384-wells plate containing pre-diluted compounds. After 24 hours incubation at 37° C./5% CO2, assay plates were cooled down to RT and levelled to an equal volume per well, prior to the addition of 25 uL luciferase substrate SteadyLite (Perkin Elmer)/well. The plate was shaken for 10 min at 600 rpm, centrifuged for 1 min at 500 rpm and measured with an Envision reader (PerkinElmer). The amount of relative light units produced by the TEAD reporter is used to calculated percent of inhibition.
The percent of reporter inhibition was calculated in the presence of a positive control inhibitor (100% inhibition) versus a condition with the presence of the vehicle basal activity of the reporter (0% inhibition). The ability of a test compound to inhibit this activity was determined as:
Percentage inhibition=[1−((RLU determined in the presence of vehicle−RLU determined for sample with test compound present) divided by (RLU determined in the presence of vehicle−RLU determined for sample with positive control inhibitor))]*100
The activities of example compounds tested are depicted in Table 6. The activity ranges A, B and C refer to IC50 values in the reporter gene assay as follows: “A”: IC50<1 μM; “B”: 1 μM≤IC50≤20 μM and “C”: IC50>20 μM; NT=not tested.

NCI-H226 = assay: Mesothelioma cell line proliferation assay (ATPlite), NCI-H226; conditions: Homo sapiens, 144 h; NCI-H226 cells, 6 days with compound, cell viability by ATPlite
Method: (§1) Mesothelioma cell lines, NCI-H226 and NCI-H2052 (all sourced from the ATCC cell culture collection) are plated in 96-well plates (Corning® 96 Well White Polystyrene Microplate clear flat bottom, white polystyrene (TC-Treated)), at 1500 cells/well in full medium (RPMI 1640 ATCC modification with L-glutamine, HEPES, Phenol Red, Sodium Pyruvate, High glucose, Low sodium bicarbonate and 10% fetal bovine serum). Cells are incubated overnight at 37° C. in an incubator with 5% CO2. Then compounds, dissolved in DMSO, are added in dose-response. Cells are incubated with compound dilutions for another 6 days at 37° C. in an incubator with 5% CO2. Cell viability is quantitated using the ATPlite kit (Perkin-Elmer) and the luminescence is read-out using an Envision instrument (Perkin-Elmer). The amount of relative light units produced using the ATPlite kit is used to calculated percent of inhibition.
(§2) The activities of some example compounds are depicted in Table 7. The activity ranges A, B and C refer to EC50 values in the mesothelioma cell line proliferation assay as described as follows: “A”: EC50<1 μM; “B”: 1 μM≤EC50≤10 μM and “C”: EC50>10 μM; NT: not tested.

NCI-H2052 = assay: Mesothelioma cell line proliferation assay (ATPlite), NCI-H2052; conditions: Homo sapiens, 144 h; NCI-H2052 cells, 6 days with compound, cell viability by ATPlite
Method: as §1, §2

Measured: EC50

C=CC(=O)NCc1nn(-c2ccc(C(F)(F)F)cc2)c2ccc(OCc3ccccc3)cc12 [compound 54, N-[[5-benzyloxy-1-[4-(trifluoromethyl)phenyl]indazol-3-yl]methyl]prop-2-enamide]
< 1000 nM: all assays above

C=CC(=O)NCc1nn(-c2ccc(C(F)(F)F)cc2)c2ccc(OCc3cc[nH]n3)cc12 [compound 58, N-[[5-(1H-pyrazol-3-ylmethoxy)-1-[4-(trifluoromethyl)phenyl]indazol-3-yl]methyl]prop-2-enamide]
< 1000 nM: all assays above

C=CC(=O)NCc1nn(-c2ccc(C(F)(F)F)cc2)c2cnccc12 [compound 59, N-[[1-[4-(trifluoromethyl)phenyl]pyrazolo[3,4-c]pyridin-3-yl]methyl]prop-2-enamide]
< 1000 nM: all assays above

C#CCOc1ccc2c(c1)c(CNC(=O)C=C)nn2-c1ccc(C(F)(F)F)cc1 [compound 63, N-[[5-prop-2-ynoxy-1-[4-(trifluoromethyl)phenyl]indazol-3-yl]methyl]prop-2-enamide]
< 1000 nM: all assays above

C=CC(=O)NCc1nn(-c2ccc(C(F)(F)F)cc2)c2ccc(OCC3CC3)cc12 [compound 66, N-[[5-(cyclopropylmethoxy)-1-[4-(trifluoromethyl)phenyl]indazol-3-yl]methyl]prop-2-enamide]
< 1000 nM: all assays above

C=CC(=O)NCc1nn(-c2ccc(C(F)(F)F)cc2)c2ccc(C(F)(F)F)cc12 [compound 71, N-[[5-(trifluoromethyl)-1-[4-(trifluoromethyl)phenyl]indazol-3-yl]methyl]prop-2-enamide]
< 1000 nM: all assays above

C=CC(=O)NCc1nn(-c2ccc(C(F)(F)F)cc2)c2cc(C(F)(F)F)ccc12 [compound 74, N-[[6-(trifluoromethyl)-1-[4-(trifluoromethyl)phenyl]indazol-3-yl]methyl]prop-2-enamide]
< 1000 nM: all assays above

C=CC(=O)NCc1nn(C2CCC(F)(F)CC2)c2ccccc12 [compound 77, N-[[1-(4,4-difluorocyclohexyl)indazol-3-yl]methyl]prop-2-enamide]
< 1000 nM: all assays above

— US20230202985A1, “Indoles, Indazoles, and Related Analogs for Inhibiting YAP/TAZ-TEAD” (THE KATHOLIEKE UNIVERSITEIT LEUVEN, priority 2021, published 2023)
